Experimental data reported in the supplement of paper PMC10307832.

Tests used:
Assay in all cases: relative viability (nuclei count vs DMSO), 5 days (fraction); higher = more cells survive
Zebularine + Pemetrexed = compound: O=c1ncccn1[C@@H]1O[C@H](CO)[C@@H](O)[C@H]1O [Zebularine] + Nc1nc2[nH]cc(CCc3ccc(C(=O)N[C@@H](CCC(=O)O)C(=O)O)cc3)c2c(=O)[nH]1 [Pemetrexed] (partner 0.2 µM)
Outline: (§1)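 After 5 days of treatment, lung cancer cells in 1536-well plates were fixed and stained in a single step (final 0.05% Triton X-100, 1% formaldehyde, 1 ug/ml Hoechst) and their nuclei counted on 4× images. Treatment had been applied by pin tool the day after seeding as one drug alone or as a fixed anchor-drug dose with five library-drug doses (not always all listed) in √10 steps. Relative viability is the nuclei count of treated wells divided by that of vehicle wells, and values are medians of duplicate plates.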

Zebularine + Olaparib = compound: O=c1ncccn1[C@@H]1O[C@H](CO)[C@@H](O)[C@H]1O [Zebularine] + O=C(c1cc(Cc2n[nH]c(=O)c3ccccc23)ccc1F)N1CCN(C(=O)C2CC2)CC1 [Olaparib] (partner 8 µM)
Outline: as §1

BI-D1870 + Linsitinib = compound: CC(C)CCN1c2nc(Nc3cc(F)c(O)c(F)c3)ncc2N(C)C(=O)C1C [BI-D1870] + C[C@]1(O)C[C@@H](c2nc(-c3ccc4ccc(-c5ccccc5)nc4c3)c3c(N)nccn32)C1 [Linsitinib] (partner 1 µM)
Outline: as §1

Zebularine + Crizotinib = compound: O=c1ncccn1[C@@H]1O[C@H](CO)[C@@H](O)[C@H]1O [Zebularine] + C[C@@H](Oc1cc(-c2cnn(C3CCNCC3)c2)cnc1N)c1c(Cl)ccc(F)c1Cl [Crizotinib] (partner 1 µM)
Outline: as §1

Row | Cell Line | relative viability (Zebularine + Pemetrexed; first compound 1 µM) | relative viability (Zebularine + Pemetrexed; first compound 3.162 µM) | relative viability (Zebularine + Pemetrexed; first compound 31.62 µM) | relative viability (Zebularine + Pemetrexed; first compound 100 µM) | relative viability (Zebularine + Olaparib; first compound 1 µM) | relative viability (Zebularine + Olaparib; first compound 3.162 µM) | relative viability (Zebularine + Olaparib; first compound 10 µM) | relative viability (Zebularine + Olaparib; first compound 31.62 µM) | relative viability (Zebularine + Olaparib; first compound 100 µM) | relative viability (BI-D1870 + Linsitinib; first compound 0.04 µM) | relative viability (BI-D1870 + Linsitinib; first compound 0.1265 µM) | relative viability (BI-D1870 + Linsitinib; first compound 0.4 µM) | relative viability (BI-D1870 + Linsitinib; first compound 1.265 µM) | relative viability (BI-D1870 + Linsitinib; first compound 4 µM) | relative viability (Zebularine + Crizotinib; first compound 1 µM) | relative viability (Zebularine + Crizotinib; first compound 3.162 µM) | relative viability (Zebularine + Crizotinib; first compound 10 µM) | relative viability (Zebularine + Crizotinib; first compound 31.62 µM) | relative viability (Zebularine + Crizotinib; first compound 100 µM) | relative viability (Zebularine + Pemetrexed; first compound 10 µM)
1 | SW 1573 | 0.798 | 0.854 | 0.855 | 0.522 | 0.487 | 0.442 | 0.33 | 0.46 | 0.325 | 0.768 | 0.756 | 0.89 | 0.771 | 0.63 | 0.72 | 0.776 | 0.44 | 0.831 | 0.574 | 
2 | A-427 | 1.08 | 0.991 | 0.538 | 0.294 | 0.771 | 0.668 | 0.576 | 0.446 | 0.244 | 1.14 | 1.1 | 1.13 | 1.17 | 1.17 | 1.21 | 0.795 | 0.624 | 0.345 | 0.188 | 0.95
3 | NCI-H2347 | 0.459 | 0.466 | 0.361 | 0.335 | 0.565 | 0.566 | 0.531 | 0.385 | 0.358 | 1.07 | 0.965 | 0.962 | 1.03 | 0.899 | 0.682 | 0.676 | 0.618 | 0.516 | 0.381 | 0.402
4 | NCI-H1355 | 1.04 | 1.02 | 0.623 | 0.303 | 0.625 | 0.426 | 0.375 | 0.28 | 0.272 | 0.842 | 0.81 | 0.788 | 0.788 | 0.75 | 1.12 | 0.966 | 0.87 | 0.404 | 0.315 | 0.802
5 | NCI-H358 | 0.159 | 0.187 | 0.162 | 0.179 | 0.67 | 0.597 | 0.343 | 0.295 | 0.225 | 0.694 | 0.705 | 0.812 | 0.625 | 0.381 | 0.618 | 0.475 | 0.237 | 0.387 | 0.252 | 0.161
6 | PC-3 [JPC-3] | 1.43 | 1.06 | 0.755 | 0.813 | 1.18 | 0.984 | 0.675 | 0.673 | 0.593 | 0.959 | 0.913 | 0.956 | 1.02 | 0.897 | 1.09 | 0.943 | 0.64 | 0.699 | 0.476 | 1.07
7 | NCI-H2228 | 0.403 | 0.293 | 0.264 | 0.152 | 0.737 | 0.503 |  | 0.283 | 0.236 | 0.78 | 0.568 | 0.953 | 0.529 | 0.388 | 0.462 | 0.38 | 0.42 | 0.521 | 0.37 | 
8 | HOP-62 | 0.326 | 0.316 | 0.186 | 0.139 | 0.169 | 0.35 | 0.257 | 0.163 | 0.16 | 1.25 | 0.997 | 1.13 | 1.04 | 0.91 | 0.923 | 0.245 | 0.601 | 0.209 | 0.129 | 0.239
